The test system of this series is pig buccal membrane. The series is described as follows: Trans-buccal absorption across pig buccal epithelial membrane in side-by-side diffusion cells. The following applies: for Steady-state flux, Fs: pig, 6 h. The procedure: In a side-by-side diffusion experiment, there exists a reservoir on each side of the test biological membrane. […] The steady state flux of absorption, Fs, is calculated by the formula, Fs=(dQ/dt)/A=(dC/dt)×(V/A), wherein Q is the amount of drug permeated, C is the concentration of the drug, A is the permeation area, V is the chamber volume in a side-by-side diffusion cell, and t is the time period over which the drug permeation is monitored. Fs can be determined from the slope of the line attained from plotting the cumulative amount of drug permeated per unit area as a function of time.
Freshly prepared buccal tissue from pigs was used to prepare the buccal epithelial membrane. A dermatometer was used to obtain the buccal epithelial membrane by separating it from the underlying connective tissue. The buccal membranes were used within 3-4 hours of removal of buccal tissue from the pigs.
The buccal epithelial membrane was mounted between side-by-side diffusion cells. The exposed area of the buccal membrane was approximately 0.64 cm^2. […] The final volume of the liquid in the donor-side was 3.5 ml and the volume in the receptor-side was 3.5 ml.
The diffusion system was maintained at 37° C. throughout the experiment. At predetermined intervals over a period of 6 hours, 150 μl of the solution from the receptor-side was withdrawn for HPLC analysis. The receptor-side was refilled with the same volume (150 μl) of KRB solution.
HPLC analysis of the solution withdrawn from the receptor-side was performed using a Waters 2695 separation module HPLC system equipped with a reverse phase C18 column (150 mm×3.9 mm ID, 5 μm) (Waters Corp., Milford, Mass.). The mobile phase was 88% phosphate buffer (0.05 M NH4H2PO4/H3PO4, pH 3.3) and 12% acetonitrile. […] The software used for HPLC assay data analysis was Millenium 32 (Waters Corp., Milford, Mass.).
Microsoft Excel 2000 was used to calculate the steady state flux value of the absorption of the drug across the buccal membrane. The steady state flux (Fs)=(dQ/dt)/A=(dC/dt)×(V/A), wherein Q is the amount of drug permeated, C is concentration of the drug, A is the permeation area, V is the chamber volume, and t is the time period over which the drug permeation is monitored.
The receptor-side contained 3.5 ml of KRB solution.

Like-named read-outs stand apart in the source and are kept apart here.

On to `CNS(=O)(=O)Cc1ccc2[nH]cc(CCN(C)C)c2c1` [Base alone, 3-[2-(dimethylamino)ethyl]-N-methyl-indole-5-methanesulphonamide, reference compound], for which the “effect of absorption enhancers on absorption of sumatriptan base” value is “not significantly enhanced”. Moreover, the “Steady-state flux, Fs” value (6.8 mM) was found to be 1.6 ± 1.5 ng/cm^2/min. On to `CNS(=O)(=O)Cc1ccc2[nH]cc(CCN(C)C)c2c1.O=C(O)CCC(=O)O` [Salt (SS) alone, sumatriptan succinate, reference compound], for which the “Steady-state flux, Fs” value (12 mM) is given as 6.0 ± 6.6 ng/cm^2/min.

Take `CCCCCCCCCCCC(=O)O` [lauric acid]: the “effect of absorption enhancer on permeation of sumatriptan succinate across the buccal membrane” value was “only minor enhancing effects”. Consider `CCCCCCCCCC(=O)[O-].[Na+]` [sodium caprate], for which the “effect of absorption enhancer on permeation of sumatriptan succinate across the buccal membrane” value reads like this: (result in words) “enhanced the permeation”; (result in words, listed as Sodium caprate) “most dramatic effect”.

Regarding `CCCCCCCC(=O)[O-].[Na+]` [sodium caprylate], the “effect of absorption enhancer on permeation of sumatriptan succinate across the buccal membrane” value (result in words) is listed as “enhanced the permeation”. As for `C[C@H](CCC(=O)NCC(=O)[O-])[C@H]1CC[C@H]2[C@@H]3[C@H](O)C[C@@H]4C[C@H](O)CC[C@]4(C)[C@H]3C[C@H](O)[C@]12C.[Na+]` [sodium glycocholate], the “effect of absorption enhancer on permeation of sumatriptan succinate across the buccal membrane” value is “only minor enhancing effects”. `CCCCCCCCCCCC(=O)[O-].[Na+]` [sodium laurate]: the “effect of absorption enhancer on permeation of sumatriptan succinate across the buccal membrane” value (result in words) is “enhanced the permeation”. Still for that read-out and setting: the same measure for `CCCCCCCCCCCCOS(=O)(=O)[O-].[Na+]` [sodium lauryl sulfate (SLS), sodium lauryl sulfate]: “enhanced the permeation”.

As for lysolecithin, the “effect of absorption enhancer on permeation of sumatriptan succinate across the buccal membrane” value is “only minor enhancing effects”.

Source of the values: patent US20060002989A1, “Formulations of sumatriptan for absorption across biological membranes, and methods of making and using the same” (priority 2004, published 2006).
